Laboratory results as given in patent US20030049597A1, “Chimeric fluorescent enzymes and uses thereof” (priority 2001, published 2003).
Like-named read-outs stand apart in the source and are kept apart here.

How the values were obtained:
PgpGFP [1] = molecular target: T1, PgpGFP (Homo sapiens, UniProt P08183); assay: Drug mediated microtubule depolymerization in PgpGFP transfected HeLa cells (anti-b-tubulin immunofluorescence); details: for effect of PgpGFP expression on sensitivity of cells to the drug: microtubule depolymerization, 30 min
T1 sequence (P08183 whole entry): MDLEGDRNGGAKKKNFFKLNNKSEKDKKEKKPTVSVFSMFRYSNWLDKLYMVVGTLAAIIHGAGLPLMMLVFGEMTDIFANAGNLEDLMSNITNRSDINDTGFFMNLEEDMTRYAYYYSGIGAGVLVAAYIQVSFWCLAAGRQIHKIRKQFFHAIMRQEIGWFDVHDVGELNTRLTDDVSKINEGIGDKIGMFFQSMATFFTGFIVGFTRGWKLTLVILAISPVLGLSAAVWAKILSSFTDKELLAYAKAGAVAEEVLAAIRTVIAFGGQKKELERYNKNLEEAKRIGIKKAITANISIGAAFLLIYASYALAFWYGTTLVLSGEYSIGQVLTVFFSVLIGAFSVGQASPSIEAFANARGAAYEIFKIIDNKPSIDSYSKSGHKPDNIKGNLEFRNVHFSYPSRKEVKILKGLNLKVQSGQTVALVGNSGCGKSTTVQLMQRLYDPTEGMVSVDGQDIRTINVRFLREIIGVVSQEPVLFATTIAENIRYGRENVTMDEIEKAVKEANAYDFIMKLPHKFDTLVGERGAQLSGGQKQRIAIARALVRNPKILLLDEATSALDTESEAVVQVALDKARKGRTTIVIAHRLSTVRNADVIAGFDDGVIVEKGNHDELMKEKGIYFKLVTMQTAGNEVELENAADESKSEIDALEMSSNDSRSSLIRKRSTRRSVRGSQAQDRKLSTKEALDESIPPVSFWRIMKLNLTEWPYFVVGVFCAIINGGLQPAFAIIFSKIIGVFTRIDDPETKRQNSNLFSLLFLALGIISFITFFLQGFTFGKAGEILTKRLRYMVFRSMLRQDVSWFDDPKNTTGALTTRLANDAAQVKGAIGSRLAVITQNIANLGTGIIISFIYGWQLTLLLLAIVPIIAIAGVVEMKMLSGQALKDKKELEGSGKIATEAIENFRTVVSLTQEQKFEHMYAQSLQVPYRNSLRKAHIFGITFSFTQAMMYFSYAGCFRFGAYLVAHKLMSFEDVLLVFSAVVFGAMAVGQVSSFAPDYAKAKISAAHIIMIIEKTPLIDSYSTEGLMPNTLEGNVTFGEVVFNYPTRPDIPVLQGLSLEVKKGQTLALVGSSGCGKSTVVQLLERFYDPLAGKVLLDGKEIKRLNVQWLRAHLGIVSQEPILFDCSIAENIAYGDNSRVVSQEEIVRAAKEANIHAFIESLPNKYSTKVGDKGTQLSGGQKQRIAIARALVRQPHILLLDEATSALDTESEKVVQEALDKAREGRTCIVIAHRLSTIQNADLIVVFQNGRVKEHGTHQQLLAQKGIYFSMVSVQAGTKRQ
Method: Cells were plated on 18 mm glass coverslips placed in 12-well dishes. […] For tubulin staining, cells were incubated for 30 minutes in the presence of indicated concentrations of vincristine (Calbiochem), colchicine (Calbiochem) or nocodazole (Sigma). Cells were then fixed, permeabilized, and labeled with 2 μg/ml Cy3-labeled anti-b-tubulin antibody, clone TUB 2.1 (Sigma).
We used a functional assay to quantify the effect of PgpGFP expression on the cytosolic activity of chemotherapeutics. Certain chemotherapeutics, such as colchicine, vincristine and nocodazole, depolymerize microtubules. The state of a cell's microtubules after being treated with these drugs is a measurement of the cellular concentration of the drug. Thus, we examined the microtubules using immunofluorescence against b-tubulin after drug treatment.

PgpGFP [2] = molecular target: T1, PgpGFP; assay: Accumulation of fluorescent drugs and dyes in PgpGFP transfected HeLa cells (fluorescence microscopy); details: 30 min incubation, 1 μM daunorubicin (confocal), 200 nM Ho342 (epifluorescence)
Method: (§1) HeLa cells (ATCC CCL-2) were cultured as per ATCC recommendations.
(§2) Epifluorescence microscopy was done on an inverted IX-70 microscope (Olympus America, Melville, N.Y.). […] Excitation was provided using a 150 Watt Xenon arc lamp (OptiQuip, Beaver Falls, Pa.). Excitation and emission filters were selected using filter wheels (Ludl Electronic Products, Hawthorne, N.Y.). All filters were from Chroma Technology (Brattleboro, Vt.).
(§3) Confocal microscopy was done on an upright Axiplan 2 microscope with a LSM 510 confocal attachment (Carl Zeiss, Thomwood, N.Y.). Excitation was provided an Argon/Krypton laser with lines at 488 nm and 568 nm and a Helium/Neon laser at 633 nm. The following laser lines and emission filters were used for confocal microscopy: GFP λex=488 nm, λem=500-530 nm, Texas Red, Cy3, TMRE: λex=568 nm, λem=580 nm LP, Fura Red, daunorubicin: λex=488 nm, λem=580 nm LP.
(§4) All fluorescent dyes were from Molecular Probes. Daunorubicin was from Calbiochem. Cells were incubated with the indicated drug or dye for the indicated amount of time in Opti-MEM without phenol red and with 10 mM Hepes (Life Technologies, Rockville, Md.) in a 5% CO2, 37° C. incubator prior to observation.

PgpGFP [3] = molecular target: T1, PgpGFP
Method: as §1, §2, §3, §4

PgpCFP = PgpCFP (Homo sapiens, UniProt P08183); assay: Accumulation of AM ester dyes in PgpCFP transfected cells (fluorescence microscopy); details: dyes marked (CFP)
PgpCFP, sequence (P08183 whole entry): as above

## CC[C@]1(O)C[C@H]2CN(CCc3c([nH]c4ccccc34)[C@@](C(=O)OC)(c3cc4c(cc3OC)N(C=O)[C@H]3[C@@](O)(C(=O)OC)[C@H](OC(C)=O)[C@]5(CC)C=CCN6CC[C@]43[C@@H]65)C2)C1 [Vincristine, vincristine]
PgpGFP [1]
  Fold resistance (high level PgpGFP expression, drug mediated microtubule depolymerization): 25-125 fold

## CCOc1ccc(-c2nc3ccc(-c4nc5ccc(N6CCN(C)CC6)cc5[nH]4)cc3[nH]2)cc1 [Ho342, Hoechst 33342]
PgpGFP [2]
  fluorescence lower in PgpGFP expressing cell compared to Pgp negative cell: 3 fold

## COc1cc2c(c(OC)c1OC)-c1ccc(OC)c(=O)cc1[C@@H](NC(C)=O)CC2 [Colchicine, colchicine]
PgpGFP [1]; high level PgpGFP expression
  Fold resistance (high level PgpGFP expression, drug mediated microtubule depolymerization): 5-25 fold
PgpGFP [1]
  effect of PgpGFP expression on sensitivity of cells to the drug: decreased the sensitivity

## CC(=O)OCOC(=O)CN(CC(=O)OCOC(C)=O)c1ccc(C)cc1OCCOc1cc2cc(-c3ncc(C(=O)OCOC(C)=O)o3)oc2cc1N(CC(=O)OCOC(C)=O)CC(=O)OCOC(C)=O [FURA-2 AM]
PgpGFP [3]
  Effects on fluorescence (effect of PgpGFP expression on accumulation of AM esters): >10 Fold

## COC(=O)Nc1nc2ccc(C(=O)c3cccs3)cc2[nH]1 [Nocodazole, nocodazole]
PgpGFP [1]; high level PgpGFP expression
  Fold resistance (high level PgpGFP expression, drug mediated microtubule depolymerization): None
PgpGFP [1]
  effect of PgpGFP expression on sensitivity of cells to the drug: no effect

## CC(=O)OCOC(=O)CN(CC(=O)OCOC(C)=O)c1ccc(C)cc1OCCOc1cc2cc(C=C3NC(=S)NC3=O)oc2cc1N(CC(=O)OCOC(C)=O)CC(=O)OCOC(C)=O [FURA Red AM]
PgpGFP [3]
  Effects on fluorescence (effect of PgpGFP expression on accumulation of AM esters): >10 Fold

## Calcein AM
PgpCFP
  Effects on fluorescence (effect of PgpCFP expression on accumulation of AM esters): >10 Fold
